From patent publication EP1038864A1, “NOVEL METALLOPROTEINASE INHIBITORS” (FUJI YAKUHIN KOGYO KABUSHIKI KAISHA, priority 1997, dated 1999)
Where two headings read alike, the source gives them in different places.

Assays:
[1] = rat, in vivo, po, 100 mg/kg, 4 h
Description: (§2) Each compound of the present invention was dissolved in distilled water for injection and orally administered to rats (Lewis strain line, male, body weight: about 200 g) at a dose of 100mg/kg. From 30 minutes to 4 hours after the administration, a series of blood chronologically collected from rat fundus oculi were centrifuged (3000rpm for 10 minutes at 4°C) to give plasma samples. Each plasma sample (200 µl) was filtered through an ultrafiltration membrane by centrifugation at 1500 x G for 3 minutes using a micropartition UF unit (Centrifree-MPS-3: 30,000 MW cut-off, Amicon Corp., Beverly, MA). […] The reaction was stopped by adding 900 µl of 3% aqueous acetic acid to the reaction mixture. The fluorescence of the resulting solution was read using an excitation wavelength of 325 nm and an emission wavelength of 393 nm. The concentration of each test compound in rat plasma samples was calculated using a standard curve which was prepared based on a variety of doses.

[2] = Assay for Oral Absorption in Rat (plasma level by MMP-3 inhibition bioassay)
Description: as §2

[3] = target: human fibroblast stromelysin (Homo sapiens, UniProt P08254); assay: Assay for inhibition of stromelysin (fluorescein-labeled casein substrate); assay type: biochemical
Description: (§1) Described below are assays for biological activities of the compounds according to the present invention, formulations, dosage forms and dosage levels thereof, and miscellaneous matters. The efficacy of the compounds represented by the formula (I) according to the present invention as inhibitors of human fibroblast collagenase (metalloproteinase involved in the breakdown of tissues) is determined by a procedure based on the method of Y. Murawaki et al., Journal of Hepatology, 18, p328-334 (1993). The efficacy of the compounds (I) of this invention as inhibitors of human fibroblast stromelysin is determined by a procedure based on the method of S. S. Twining, Anal. Biochem., 143, p30 (1984). The assay results obtained are shown hereinbelow, together with biological examples which illustrate embodiments of the assay protocols.
The efficacy of compounds of the present invention to act as inhibitors of human fibroblast stromelysin was determined by the procedure of Twining (Anal. Biochem., 143, p.30, 1984), compared with a reference compound.
Prostromelysin was activated by incubation with 20 µg/ml human plasmin at 37°C for 2 hours, and the reaction was stopped by addition of 2.8 mg/ml aqueous diisopropyl fluorophosphate. The inhibition was assayed using, as a substrate, fluorescein-labeled casein. To a solution of the substrate (1 mg/ml) in a 50 mM Tris-HCl buffer, pH 7.8, containing 10mM aqueous calcium chloride was added the activated stromelysin. The resultant solution was incubated at 37°C for 2 hours. The digestion of the substrate with the enzyme was stopped by addition of 5% trichloroacetic acid. Undigested substrates were precipitated by centrifugation at 3000 x g for 20 minutes. The supernatant was collected, followd by additon of a 0.5M Tris-HCl buffer, pH 8.5. The fluorescence was read using an excitation wavelength of 495 nm and an emission wavelength of 520 nm. The inhibitory potency of the compounds was calculated. […] The resulting assay data for representative examples are shown in Table 2, compared with the reference compound.

TNF-α Convertase = TNF-α Convertase (Homo sapiens, UniProt P78536); assay: Assay for inhibition of TNF-α production in LPS-stimulated, PMA-differentiated U937 cells
Description: Human monocytic leukemia cell line U937 (human histiocytic lymphoma cell line U937) cells were cultured in RPMI 1640 (Nissui Pharmaceutical Co., Ltd., Japan) supplemented with 5% fetal calf serum (FCS; IBL, Japan) in an incubator at 37°C under 5% CO2, then transferred to multiplates at a density of 1 x 10^6 cells/1 ml/well, and incubated overnight in the presence of 10^-7 M phorbol 12-myristate 13-acetate (Wako Pure Chemical Industries, Ltd., Japan) to form differentiated macrophage-like cells. To the resultant cells was added E. coli O127:B8 lipopolysaccaride (LPS, 0.1 µg/ml; Sigma) alone or along with each compound of the present invention, and the treated cells were then incubated for 6 hours in an incubator under 5% CO2 at 37°C. After the incubation, the cultures were collected and centrifuged at 3000 rpm for 10 minutes to give supernatants which were diluted with purified water and then assayed using a TNF-α assay kit, Genzyme (Table 3).

[4] = target: T1, human fibroblast collagenase (Homo sapiens, UniProt P03956); assay: Assay for inhibition of collagenase (fluorescein-labeled bovine type I collagen substrate); assay type: biochemical; conditions: activated human fibroblast procollagenase, 35°C, 2 hours, pH 7.5; read-out: Inhibition of MMP-1
T1 sequence (P03956 100-469): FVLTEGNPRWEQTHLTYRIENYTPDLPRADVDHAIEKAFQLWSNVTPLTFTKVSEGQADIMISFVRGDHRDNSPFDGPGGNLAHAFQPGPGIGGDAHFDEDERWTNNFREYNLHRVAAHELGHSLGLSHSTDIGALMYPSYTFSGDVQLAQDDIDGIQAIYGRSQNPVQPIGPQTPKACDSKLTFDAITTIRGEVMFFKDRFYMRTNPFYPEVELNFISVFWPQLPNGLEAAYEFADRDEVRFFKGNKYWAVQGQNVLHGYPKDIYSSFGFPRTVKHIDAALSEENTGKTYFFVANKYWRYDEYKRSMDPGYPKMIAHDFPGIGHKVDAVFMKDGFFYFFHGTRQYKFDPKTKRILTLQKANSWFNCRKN
Description: as §1
The efficacy of compounds of the present invention to act as inhibitors of human fibroblast collagenase was determined by the procedure of Y. Murawaki et al. (Journal of Hepatology, 18, p.328-334, 1993), compared with a reference compound.
Procollagenase was activated by incubation with 2 mM 4-aminophenylmercuric acetate (APMA) at 35°C for 2 hours. The inhibition was assayed using, as a substrate, fluorescein-labeled bovine type I collagen. To a solution of the substrate (0.5 mg/ml) in a 50 mM Tris-HCl buffer, pH 7.5, containing 0.4M aqueous sodium chloride and 10 mM aqueous […] was added the activated collagenase. The resultant solution was incubated at 35°C for 2 hours. The digestion of the substrate with the enzyme was stopped by addition of 80 mM o-phenanthroline, followed by addition of a porcine elastase solution formed by dissolving 25 µg/ml porcine elastase in the aforementioned Tris-HCl buffer. The mixture was incubated at 37°C for 10 minutes. To the resulting solution was added 70% ethanol, and a 170 mM Tris-HCl buffer, pH 9.5, containing 0.67M aqueous sodium chloride. Undigested substrates were precipitated by centrifugation at 3000 x g for 20 minutes. The supernatant was collected and the fluorescence was read using an excitation wavelength of 495 nm and an emission wavelength of 520 nm. The inhibitory potency of the compounds was calculated. […] The resulting assay data for representative examples are shown in Table 1, compared with the reference compound. […]

in vivo = conditions: rat, po, 100 mg/kg
Description: as §2

[5] = plasmin-activated human fibroblast prostromelysin, 37°C, 2 hours, pH 7.8, read-out: Inhibition of MMP-3
[6] = read-out: Inhibition of MMP-3, plasmin-activated human fibroblast prostromelysin, 37°C, 2 hours, pH 7.8
[7] = read-out: Inhibition of TACE, U937 cells, LPS 0.1 µg/ml, 6 hours, TNF-α in supernatant by assay kit

Chain of human fibroblast stromelysin (P08254 100-477): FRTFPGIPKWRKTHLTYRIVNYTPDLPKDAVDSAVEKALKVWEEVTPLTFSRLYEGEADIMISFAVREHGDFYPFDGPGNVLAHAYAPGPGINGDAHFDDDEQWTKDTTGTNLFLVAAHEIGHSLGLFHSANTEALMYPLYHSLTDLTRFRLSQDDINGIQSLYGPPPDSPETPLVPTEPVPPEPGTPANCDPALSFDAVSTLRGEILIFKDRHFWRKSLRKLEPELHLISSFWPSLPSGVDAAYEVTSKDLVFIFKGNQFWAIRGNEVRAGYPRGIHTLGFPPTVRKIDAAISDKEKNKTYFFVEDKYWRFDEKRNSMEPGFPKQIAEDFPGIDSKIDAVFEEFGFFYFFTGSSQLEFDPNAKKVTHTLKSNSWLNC
Chain of TNF-α Convertase (P78536 215-824): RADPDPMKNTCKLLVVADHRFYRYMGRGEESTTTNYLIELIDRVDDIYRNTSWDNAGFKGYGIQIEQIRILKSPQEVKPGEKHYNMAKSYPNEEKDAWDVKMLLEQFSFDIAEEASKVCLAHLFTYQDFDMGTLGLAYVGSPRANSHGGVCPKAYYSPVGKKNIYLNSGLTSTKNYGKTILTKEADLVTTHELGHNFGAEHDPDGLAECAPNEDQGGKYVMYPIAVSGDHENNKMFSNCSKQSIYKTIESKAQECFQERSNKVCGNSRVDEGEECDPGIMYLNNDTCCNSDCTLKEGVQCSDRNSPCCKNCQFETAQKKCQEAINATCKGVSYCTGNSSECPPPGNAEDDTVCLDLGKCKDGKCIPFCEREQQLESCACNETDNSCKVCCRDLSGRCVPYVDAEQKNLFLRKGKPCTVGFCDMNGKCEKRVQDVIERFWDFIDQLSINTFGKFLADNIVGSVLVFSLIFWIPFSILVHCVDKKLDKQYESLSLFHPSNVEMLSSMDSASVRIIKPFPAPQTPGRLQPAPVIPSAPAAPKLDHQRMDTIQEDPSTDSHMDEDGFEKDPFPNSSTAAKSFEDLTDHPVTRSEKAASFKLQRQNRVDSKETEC

`CC(=N)NCCCC[C@H](NC(=O)[C@H](CC(C)C)C(C)C(=O)NO)C(=O)NC(C)CO.CC(=O)O` (mixture of isomers) [Compound No. 39, N^a-[4-(Hydroxyamino)-2(R)-isobutyl-3(RS)-methylsuccinyl]-N^e-acetimidoyl-L-lysine N-[2-hydroxy-1(RS)-methylethyl]amide · 1 acetate] showed an AUC0.5-4 [1] of 14996 ng·h/mL.

For `CC(=O)O.CCC(=N)NCCCC[C@H](NC(=O)[C@H](CC(C)C)C(C)C(=O)NO)C(=O)NC` (mixture of isomers) [Compound No. 45, N^a-[4-(Hydroxyamino)-2(R)-isobutyl-3(RS)-methylsuccinyl]-N^e-propionimidoyl-L-lysine N-methylamide · 1 acetate], the AUC0.5-4 ([2]; rats (Lewis, male), orally, 100mg/kg, 0.5 to 4 hours after administration) was 7067 ng·h/mL.

For `CC(=N)NCc1ccc(CC(NC(=O)C(CC(C)C)C(C)C(=O)NO)C(=O)NN2CCOCC2)cc1` (single isomer, unassigned) [Compound No. 42, N^a-[4-(Hydroxyamino)-2(R)-isobutyl-3(R or S)-methylsuccinyl]-4'-acetimidoyliminomethyl-L-phenylalanine N-(morpholin-4-yl)-amide · 1 acetate], the IC50 [3, 5] was 24 nM and the AUC ([2]; male, Lewis, rat, po, 100 mg/kg) was 6260 ng·h/mL.

In the case of `CC(=O)O.CC(=O)O.CNC(=O)[C@H](CCCN)NC(=O)[C@H](CC(C)C)C(Cc1ccc(CN)cc1)C(=O)NO` (single isomer, unassigned) [Compound No. 48, N^a-[4-(Hydroxyamino)-2(R)-isobutyl-3(R or S)-(p-aminomethylbentyl)succinyl]-L-ornithine N-methylamide· 2 acetate], the AUC0.5-4 [1] is reported as 20203 ng·h/mL.

For `CC(=O)O.CC(=O)O.CNC(=O)[C@H](Cc1ccc(CN)cc1)NC(=O)[C@H](CC(C)C)C(Cc1ccc(CN)cc1)C(=O)NO` (single isomer, unassigned) [Compound No. 49, N^a-[4-(Hydroxyamino)-2(R)-isobutyl-3(R or S)-(p-aminomethylbenzyl)succinyl]-4'-aminomethyl-L-phenylalanine N-methylamide · 2 acetate], the AUC0.5-4 [1] was 15292 ng·h/mL.

In the case of `CNC(=O)C(CCCNC(=N)N)NC(=O)C(CC(C)C)C(Cc1ccc(CNS(=O)(=O)c2ccc(C)cc2)cc1)C(=O)NO` (single isomer, unassigned) [Compound No. 50, N^a-[4-(Hydroxyamino)-2(R)-isobutyl-3(R or S)-[p-(p-toluenesulfonamidomethyl)benzyl]succinyl]-L-arginine N-methylamide · 1 acetate], the IC50 [3, 5] is reported as 9 nM, the IC50 (TNF-α Convertase) is reported as 599 nM and the IC50 [4] is reported as 13 nM.

For `CNC(=O)C(CCCNC(=N)N)NC(=O)C(CC(C)C)C(Cc1ccc(CN2C(=O)c3ccccc3C2=O)cc1)C(=O)NO` (single isomer, unassigned) [Compound No. 51, N^a-[4-(Hydroxyamino)-2(R)-isobutyl-3(R or S)-(p-phthalimidomethylbenzyl)succinyl]-L-arginine N-methylamide · 1 acetate], the IC50 [3, 5] was 2 nM, the IC50 (TNF-α Convertase) was 426 nM and the IC50 [4] was 9 nM.

`CC(=O)O.CNC(=O)[C@H](C)NC(=O)[C@H](CC(C)C)C(Cc1cccc(CN)c1)C(=O)NO` (single isomer, unassigned) [Compound No. 53, N^a-[4-(Hydroxyamino)-2(R)-isobutyl-3(R or S)-(m-aminomethylbenzyl)succinyl]-L-alanine N-methylamide · 1 acetate] showed an AUC0.5-4 [1] of 4816 ng·h/mL.

Work on `CNC(=O)[C@H](CCCCN)NC(=O)[C@H](CC(C)C)C(CCCc1ccc(CN)cc1)C(=O)NO` (single isomer, unassigned) [Compound No. 61, N^a-[4-(Hydroxyamino)-2(R)-isobutyl-3(R or S)-(3-(p-aminomethylphenyl)propyl]succinyl]-L-lysine N-methylamide· 2 acetate] yielded an IC50 [3, 6] of 23 nM, an IC50 (TNF-α Convertase; [7]) of 1100 nM and an AUC at 4 h (in vivo) of 13800 ng·h/mL.

With `CCCCOCCC(C(=O)NO)[C@@H](CC(C)C)C(=O)N[C@@H](CCCCN)C(=O)NC` (single isomer, unassigned) [Compound No. 69, N^a-[4-(Hydroxyamino)-2(R)-isobutyl-3(R or S)-(2-n-butyloxyethyl)succinyl]-L-lysine N-methylamide· 1 acetate] the IC50 [3, 6] was 20 nM and the AUC at 4 h (in vivo) was 3340 ng·h/mL.

Work on `CNC(=O)[C@H](CCCCN)NC(=O)[C@H](CC(C)C)C(CCCc1ccc(O)cc1)C(=O)NO` (single isomer, unassigned) [Compound No. 72, N^a-[4-(Hydroxyamino)-2(R)-isobutyl-3(R or S)-[3-(p-hydroxyphenyl)propyl]succinyl]-L-lysine N-methylamide· 1 acetate] yielded an IC50 (TNF-α Convertase) of 250 nM and an AUC at 4 h (in vivo) of 4040 ng·h/mL.

Work on `CNC(=O)[C@H](CCCCN)NC(=O)[C@H](C(C)C)C(CCCc1ccccc1)C(=O)NO` (single isomer, unassigned) [Compound No. 74, N^a-[4-(Hydroxyamino)-2(R)-isopropyl-3(R or S)-(3-phenylpropyl)succinyl]-L-lysine N-methylamide· 1 acetate] yielded an IC50 [3, 6] of 62 nM, an IC50 (TNF-α Convertase; [7]) of 603 nM and an AUC at 4 h (in vivo) of 9020 ng·h/mL.

`CNC(=O)C(Cc1ccc(CN)cc1)NC(=O)C(CC(C)C)C(C)C(=O)NO` [Compound No. 23, N^a-[4-(Hydroxyamino)-2(R)-isobutyl-3(RS)-methylsuccinyl]-4'-aminomethyl-L-phenylalanine N-methylamide · 1 acetate] showed an IC50 [3] of 16 nM, an IC50 (TNF-α Convertase) of 1190 nM and an AUC at 4 h (in vivo) of 4760 ng·h/mL.

With `CC(=O)O.CNC(=O)[C@H](Cc1ccc(CNC(C)=N)cc1)NC(=O)[C@H](CC(C)C)[C@H](O)C(=O)NO` [Compound No. 43, N^a-[4-(Hydroxyamino)-2(R)-isobutyl-3(S)-hydroxysuccinyl]-4'-acetimidoyliminomethyl-L-phenylalanine N-methylamide · 1 acetate] the AUC0.5-4 [1] was 3289 ng·h/mL.

`CC(=N)NCCCCC(NC(=O)C(CC(C)C)C(CCCc1ccccc1)C(=O)NO)C(=O)NCCN(C)C` [Compound No. 44, N^a-[4-(Hydroxyamino)-2(R)-isobutyl-3(RS)-(3-phenylpropyl)-succinyl]-N^e-acetimidoyl-L-lysine N-(2-N',N'-dimethylaminoethyl)amide · 2 acetate] gave an IC50 [3] of 17 nM, an IC50 (TNF-α Convertase) of 129 nM and an AUC at 4 h (in vivo) of 1930 ng·h/mL.

In the case of `CNC(=O)[C@@H](NC(=O)[C@H](CC(C)C)[C@H](O)C(=O)NO)C(C)(C)C` [Reference Compound No. 2, reference compound], the AUC at 4 h (in vivo) is reported as 1570 ng·h/mL.

For “N^a-[4-(Hydroxyamino)-2(R)-isobutyl-3(R or S)-[5-(isopropylimino)pentyl]succinyl]-L-alanine N-methylamide [Compound No. 63]”, the AUC0.5-4 [1] was 5662 ng·h/mL.
